Values after ≈ are worked out from the molar mass of the structure shown. Active and inactive are the calls of the source. The calls are words filed in the database; no cut-off is given here.
Tests used:
[1] = target: T1, Vasopressin V1b receptor (Homo sapiens) (UniProt P47901); test: Agonist activity at vasopressin receptor 1b (unknown origin) expressed in HEK293 cells assessed as stimulation of cAMP production incubated for 30 mins by HTRF assay relative to control; assay type: functional, cell-based
T1 sequence (whole entry): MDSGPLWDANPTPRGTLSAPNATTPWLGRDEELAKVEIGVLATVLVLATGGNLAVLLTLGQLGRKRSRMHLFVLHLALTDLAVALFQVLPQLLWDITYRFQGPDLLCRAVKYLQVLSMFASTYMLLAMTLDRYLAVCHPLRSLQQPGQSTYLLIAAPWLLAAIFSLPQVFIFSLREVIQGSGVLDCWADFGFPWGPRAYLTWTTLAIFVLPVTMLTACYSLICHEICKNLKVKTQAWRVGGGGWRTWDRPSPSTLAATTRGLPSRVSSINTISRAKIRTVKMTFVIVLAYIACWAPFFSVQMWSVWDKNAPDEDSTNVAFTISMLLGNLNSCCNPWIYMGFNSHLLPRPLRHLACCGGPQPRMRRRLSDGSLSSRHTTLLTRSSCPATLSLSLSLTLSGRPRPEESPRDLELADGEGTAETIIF

[2] = target: T2, Vasopressin V1b receptor (Homo sapiens, UniProt P47901); test: Agonist activity at vasopressin receptor 1b (unknown origin) expressed in HEK293 cells assessed as stimulation of cAMP production incubated for 30 mins by HTRF assay; assay type: functional, cell-based
T2 sequence (P47901 whole entry): T1 sequence (whole entry)

[3] = target: T3, Relaxin receptor 2 (Homo sapiens, UniProt Q8WXD0); test: Agonist activity at RXFP2 receptor (unknown origin) expressed in HEK293 cells assessed as stimulation of cAMP production incubated for 30 mins by HTRF assay; assay type: functional, cell-based
[4] = Solubility in PBS buffer; assay type: physicochemical
[5] = target: T4, Relaxin receptor 1 (Homo sapiens) (UniProt Q9HBX9); test: Agonist activity at RXFP1 receptor (unknown origin) expressed in HEK293 cells assessed as stimulation of cAMP production incubated for 30 mins by TR-FRET based HTRF assay relative to forskolin; assay type: functional, cell-based
T4 sequence (whole entry): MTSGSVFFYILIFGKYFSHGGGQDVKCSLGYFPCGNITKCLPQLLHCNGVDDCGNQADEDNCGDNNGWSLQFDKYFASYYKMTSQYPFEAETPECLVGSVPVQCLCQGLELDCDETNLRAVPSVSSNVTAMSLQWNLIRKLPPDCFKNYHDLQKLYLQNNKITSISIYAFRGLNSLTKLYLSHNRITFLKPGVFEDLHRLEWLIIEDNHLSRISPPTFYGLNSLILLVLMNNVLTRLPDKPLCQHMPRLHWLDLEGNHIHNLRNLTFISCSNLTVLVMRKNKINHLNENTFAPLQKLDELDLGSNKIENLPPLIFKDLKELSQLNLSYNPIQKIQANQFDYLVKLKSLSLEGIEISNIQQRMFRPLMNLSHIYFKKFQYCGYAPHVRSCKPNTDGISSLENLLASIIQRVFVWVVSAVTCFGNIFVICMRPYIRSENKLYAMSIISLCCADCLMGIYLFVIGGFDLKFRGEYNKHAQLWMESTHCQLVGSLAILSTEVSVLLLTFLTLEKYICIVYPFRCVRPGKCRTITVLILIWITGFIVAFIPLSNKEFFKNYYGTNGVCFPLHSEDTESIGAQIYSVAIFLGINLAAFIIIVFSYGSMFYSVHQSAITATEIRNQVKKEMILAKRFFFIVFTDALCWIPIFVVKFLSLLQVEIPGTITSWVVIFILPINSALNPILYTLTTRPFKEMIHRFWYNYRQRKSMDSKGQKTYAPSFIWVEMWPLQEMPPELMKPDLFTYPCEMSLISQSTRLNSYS

[6] = target: T5, Relaxin receptor 1 (Homo sapiens, UniProt Q9HBX9); test: Agonist activity at RXFP1 receptor (unknown origin) expressed in HEK293 cells assessed as stimulation of cAMP production incubated for 30 mins by TR-FRET based HTRF assay; assay type: functional, cell-based
T5 sequence (Q9HBX9 whole entry): T4 sequence (whole entry)

[7] = Cytotoxic activity against HEK293 cells assessed as reduction in cell viability by measuring ATP level incubated for 72 hrs by ATP cytotoxicity assay relative to control; assay type: cell-based; conditions: human, read-out: %max
[8] = target: T3, Relaxin receptor 2; test: Agonist activity at RXFP2 receptor (unknown origin) expressed in HEK293 cells assessed as stimulation of cAMP production incubated for 30 mins by HTRF assay relative to control; assay type: functional, cell-based
[9] = test system: HEK293; test: Cytotoxic activity against HEK293 cells assessed as reduction in cell viability by measuring ATP level incubated for 72 hrs by ATP cytotoxicity assay; assay type: cell-based, Homo sapiens
[10] = target: T5, Relaxin receptor 1; test: Agonist activity at RXFP1 receptor in human THP1 cells assessed as stimulation of cAMP production incubated for 30 mins by HTRF assay; assay type: functional, cell-based, THP-1
[11] = Stimulation of VEGF gene expression in human THP1 cells assessed as change in VEGF mRNA level incubated for 2 hrs by quantitative real time RT-PCR method relative to control; assay type: functional, cell-based; conditions: THP-1
[12] = Half life in mouse liver microsomes; assay type: ADME
[13] = target: T4, Relaxin receptor 1 (Homo sapiens); test: Agonist activity at RXFP1 receptor (unknown origin) expressed in HEK293 cells assessed as increase cell impedance at 250 to 750 nM measured every 10 to 30 secs for 1 hr by real time cell analyzer method; assay type: functional, cell-based
[14] = Homo sapiens, HEK293, 72 h, read-out: EC50

T3 sequence (Q8WXD0 whole entry): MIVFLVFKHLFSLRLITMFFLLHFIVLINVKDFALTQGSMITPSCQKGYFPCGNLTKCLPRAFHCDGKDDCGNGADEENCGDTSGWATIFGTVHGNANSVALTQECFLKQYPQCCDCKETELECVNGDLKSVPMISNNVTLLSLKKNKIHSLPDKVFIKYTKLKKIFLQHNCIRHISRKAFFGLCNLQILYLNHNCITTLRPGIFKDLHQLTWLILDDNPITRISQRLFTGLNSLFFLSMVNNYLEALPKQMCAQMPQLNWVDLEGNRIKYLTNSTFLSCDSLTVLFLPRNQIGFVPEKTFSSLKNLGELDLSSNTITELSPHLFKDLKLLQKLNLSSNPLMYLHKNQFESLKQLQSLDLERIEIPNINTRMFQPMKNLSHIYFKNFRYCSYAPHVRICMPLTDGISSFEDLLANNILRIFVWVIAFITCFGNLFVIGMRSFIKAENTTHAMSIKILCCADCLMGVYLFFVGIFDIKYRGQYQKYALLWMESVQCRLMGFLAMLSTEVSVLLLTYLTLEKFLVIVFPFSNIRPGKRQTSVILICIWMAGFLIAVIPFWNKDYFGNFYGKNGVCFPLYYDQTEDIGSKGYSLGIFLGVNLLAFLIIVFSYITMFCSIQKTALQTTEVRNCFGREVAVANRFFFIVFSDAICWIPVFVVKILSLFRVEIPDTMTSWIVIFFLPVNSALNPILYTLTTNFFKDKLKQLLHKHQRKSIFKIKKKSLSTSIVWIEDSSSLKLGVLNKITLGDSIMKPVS

Compound	%max [1]	AC50 [2]	solubility [4]	%max [5]	AC50 ([6]; read-out: AC50)	%max [8]	EC50 [10]	Emax at 72 h [7]	fold change (FC) [11]	other results
O=C(Nc1ccccc1C(=O)Nc1cccc(C(F)(F)F)c1)c1ccno1	< 30%	Not Active	< 1.1 µM	93%	14900 nM	38%	–	-73%	–	AC50 ([3]; read-out: AC50): 7470 nM
O=C(Nc1ccc2cc[nH]c2c1)c1ccccc1NC(=O)C1CCCCC1	< 30%	Not Active	1.7 µM (≈ 0.614 µg/mL)	inactive	–	47%	–	< 30%	–	AC50 ([3]; read-out: AC50): 9400 nM; AC50 ([6]; hek293): Not Active; EC50 ([9]; hek293): Non-toxic
O=C(Nc1ccccc1C(=O)Nc1cccc(C(F)(F)F)c1)c1ccc2c(c1)OCO2	< 30%	Not Active	2.9 µM (≈ 1.24 µg/mL)	81%	6660 nM	54%	–	-31%	–	AC50 ([3]; read-out: AC50): 3340 nM; EC50 [9, 14]: 3740 nM
O=C(Nc1ccccc1C(=O)Nc1cccc(C(F)(F)F)c1)c1cccnc1	< 30%	Not Active	7 µM (≈ 2.7 µg/mL)	95%	5930 nM	< 30%	–	85%	–	AC50 ([3]; hek293): Not Active; EC50 [9, 14]: 9400 nM
O=C(Nc1cccc(S(=O)(=O)C(F)(F)F)c1)c1ccccc1NC(=O)c1ccccc1OCC(F)(F)F	–	–	–	97%	67 nM	–	107 nM	–	1.3	–
O=C(Nc1cccc(C(F)(F)F)c1)c1ccccc1NC(=O)C1CCCCC1	< 30%	Not Active	5.3 µM (≈ 2.07 µg/mL)	92%	47 nM	< 30%	–	-53%	–	AC50 ([3]; hek293): Not Active; EC50 [9, 14]: 59300 nM
COc1ccccc1C(=O)Nc1ccccc1C(=O)Nc1cccc(S(=O)(=O)C(F)(F)F)c1	–	–	–	99%	188 nM	–	358 nM	–	1.4	–
O=C(Nc1ccccc1C(=O)Nc1cccc(C(F)(F)F)c1)c1ccncc1	< 30%	Not Active	17 µM (≈ 6.55 µg/mL)	51%	7470 nM	< 30%	–	83%	–	AC50 ([3]; hek293): Not Active; EC50 [9, 14]: 9400 nM
CCCCOc1ccccc1C(=O)Nc1ccccc1C(=O)Nc1cccc(S(=O)(=O)C(F)(F)F)c1	–	–	–	98%	47 nM	–	124 nM	–	1.6	Activity [13]: Active
CCCOc1ccccc1C(=O)Nc1ccccc1C(=O)Nc1cccc(S(=O)(=O)C(F)(F)F)c1	–	–	–	98%	52 nM	–	105 nM	–	1.5	–
O=C(Nc1cccc(Cl)c1)c1ccccc1NC(=O)C1CCCCC1	–	–	–	89%	3340 nM	–	–	–	–	–
COc1ccccc1C(=O)Nc1ccccc1C(=O)N(C)c1cccc(C(F)(F)F)c1	–	–	–	77%	29700 nM	–	–	–	–	–

Now from value to compound, other results behind:

%max [1]	AC50 [2]	solubility [4]	%max [5]	AC50 ([6]; read-out: AC50)	%max [8]	EC50 [10]	Compound	Emax at 72 h [7]	fold change (FC) [11]	other results
–	–	–	99%	–	–	362 nM	CCOc1ccccc1C(=O)Nc1ccccc1C(=O)Nc1cccc(S(=O)(=O)C(F)(F)F)c1	–	2.3	–
–	–	–	99%	297 nM	–	523 nM	COc1ccccc1C(=O)Nc1ccccc1C(=O)Nc1cccc(SC(F)(F)F)c1	–	1.2	–
–	–	–	94%	265 nM	–	471 nM	CCOc1ccccc1C(=O)Nc1ccccc1C(=O)Nc1cccc(C(F)(F)F)c1	–	1.9	–
< 30%	Not Active	3.3 µM (≈ 1.29 µg/mL)	88%	1880 nM	< 30%	–	O=C(Nc1ccccc1C(=O)Nc1cccc(C(F)(F)F)c1)c1cccs1	-78%	–	AC50 ([3]; hek293): Not Active; half-life [12]: 1.67 h
–	–	–	96%	1490 nM	–	–	O=C(Nc1ccccc1C(=O)Nc1cccc(C(F)(F)F)c1)c1ccc([N+](=O)[O-])cc1	–	–	–
–	–	–	34%	118000 nM	–	–	CS(=O)(=O)c1cccc(NC(=O)c2ccccc2NC(=O)C2CCCCC2)c1	–	–	–
–	–	–	85%	6660 nM	–	–	C#Cc1cccc(NC(=O)c2ccccc2NC(=O)C2CCCCC2)c1	–	–	–
< 30%	Not Active	6.3 µM (≈ 2.67 µg/mL)	90%	11800 nM	< 30%	–	O=C(Nc1cccc(C(F)(F)F)c1)c1ccccc1NC(=O)c1cccc2nc[nH]c12	-76%	–	AC50 ([3]; hek293): Not Active

From ChEMBL document CHEMBL3714716, “Modulators of the relaxin receptor 1” (2015)
